What was measured:
trypsin [1] = test: EnzChek trypsin inhibition assay of talc mixed with divalent cation salts (Example 3); type: biochemical; details: for % synergistic activity relative to hypothetic additive value: Table 3, all materials 0.1% (g/mL)
Method: The objective of the following experiment was to determine whether and to what extent adding a divalent cation to talc inhibited trypsin activity in an in vitro assay. The inhibition of trypsin-induced cleavage of a fluorescent casein peptide was measured using the EnzChek™ protease assay kit, following manufacturer's instructions (EnzChek™ Protease Assay Kits Product Information, Revised; Molecular Probes, Eugene Oreg.). […] Trypsin working solution (Sigma, St. Louis, Mo., unit/mL) was prepared in digestion buffer provided in the assay kit. Stock solution of BODIPY FL casein (trypsin substrate, mg/mL) was prepared by adding 0.2 mL to the substrate vials (provided in kit), and the final substrate working solution (10 microgram/mL) was prepared by dilution in digestion buffer (pH 7.8). Following incubation of the trypsin, with or without the test materials, with the BODIPY fluorescent casein substrate, at room temperature for one hour, fluorescence was measured (excitation 485 nm/emission 530 nm) using a SpectraMax microtiter plate reader (Molecular Devices Corporation, Sunnyvale, Calif.) and Softmax Pro software (Molecular Devices Corporation). Each experiment was performed in three replicates.

trypsin [2] = test: EnzChek trypsin inhibition assay of zinc oxide/acid mixtures and zinc oxide formulations (Example 4); type: biochemical; details: Example 4 conclusions
Method: The objective of the following experiment was to determine whether and to what extent adding an acid to a formulation containing zinc oxide had on inhibition of trypsin activity in an in vitro assay. The inhibition of trypsin-induced cleavage of a fluorescent casein peptide was measured using the EnzChek™ protease assay kit, following manufacturer's instructions (EnzChek™ Protease Assay Kits Product Information, Revised; Molecular Probes, Eugene Oreg.). Briefly, mixtures of zinc oxide and acid at different concentrations were prepared in 1×PBS (pH 7.4) and their pH was recorded as listed in the Tables 5-8. Trypsin working solution (Sigma, St. Louis, Mo., unit/mL) was prepared in digestion buffer provided in the assay kit. Stock solution of BODIPY FL casein (trypsin substrate, mg/mL) was prepared by adding 0.2 mL to the substrate vials (provided in kit), and the final substrate working solution (10 microgram/mL) was prepared by dilution in digestion buffer (pH 7.8). Following incubation of the trypsin, with or without the test materials (50 μl), with the BODIPY fluorescent casein substrate, at room temperature for one hour, fluorescence was measured (excitation 485 nm/emission 530 nm) using a SpectraMax microtiter plate reader (Molecular Devices Corporation, Sunnyvale, Calif.) and Softmax Pro software (Molecular Devices Corporation). Each experiment was performed in three replicates.

| SMILES | % synergistic activity relative to hypothetic additive value (trypsin [1]) [%] | also measured |
| --- | --- | --- |
| CC(=O)[O-].CC(=O)[O-].O.[Ca+2] [Calcium acetate monohydrate] | 3.10 | – |
| [Ca+2].[Cl-].[Cl-] [Calcium chloride] | −0.26 | – |
| [Cl-].[Cl-].[Mg+2] [Magnesium chloride] | – | trypsin inhibitory activity, result in words (trypsin [1]; Example 3, Table 4 conclusions): moderate to low levels |
| [O]=[Zn] [ZnO, zinc oxide] | – | trypsin inhibitory activity, result in words (trypsin [2]): minimal protease activity |
